Experimental data taken from patent publication US20250049970A1, “DLL3 TARGETING PEPTIDES AND CONSTRUCTS THEREOF” (MARIANA ONCOLOGY INC., priority 2023, published 2025).
Where a SMILES comes first, the peptide text is derived from it. Bridges are numbered along the chain shown (N, C = ends). [ ]: non-standard residue; d: D form.

Molecular target: T1, DLL3 (Homo sapiens, UniProt Q9NYJ7)
T1 sequence (Q9NYJ7 27-618): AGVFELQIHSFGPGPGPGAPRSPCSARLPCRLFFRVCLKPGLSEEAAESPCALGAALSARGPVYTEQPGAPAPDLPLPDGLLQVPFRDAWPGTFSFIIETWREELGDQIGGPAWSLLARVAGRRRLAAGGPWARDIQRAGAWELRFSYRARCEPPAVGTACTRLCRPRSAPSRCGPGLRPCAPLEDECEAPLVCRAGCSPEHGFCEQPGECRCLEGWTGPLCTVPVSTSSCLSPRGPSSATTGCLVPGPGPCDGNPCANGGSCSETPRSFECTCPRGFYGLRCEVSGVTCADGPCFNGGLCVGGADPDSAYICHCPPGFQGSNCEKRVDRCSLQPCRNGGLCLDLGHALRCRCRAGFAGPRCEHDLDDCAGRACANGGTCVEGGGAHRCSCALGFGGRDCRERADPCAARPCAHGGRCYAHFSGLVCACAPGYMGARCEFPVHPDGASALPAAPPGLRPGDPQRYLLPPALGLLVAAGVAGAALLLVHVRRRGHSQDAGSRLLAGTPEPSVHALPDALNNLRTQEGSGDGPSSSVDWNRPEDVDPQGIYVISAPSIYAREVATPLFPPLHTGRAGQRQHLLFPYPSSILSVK
Assay: SPR KD, biotinylated human DLL3 on streptavidin chip (Table 8)
Set-up: biotin (biotinylated)
Conditions: biotinylated human DLL3 on streptavidin sensor chip, 25° C., 1:1 binding model; read-out: SPR KD
Description: Biotinylated target ligand human DLL3 was immobilized on a streptavidin sensor chip. A reference surface was set up for nonspecific binding and refractive index changes. […] Sensorgram curves were fitted with 1:1 binding model, and affinity and kinetic parameters were obtained using Biacore Insight evaluation 4.0. software.

Row | SMILES | Kd [nM]
1 | CC(=O)N[C@@H](Cc1c[nH]c2ccccc12)C(=O)N[C@H](C(=O)N[C@H](C(=O)N[C@H]1CSSC[C@@H](C(=O)N[C@@H](Cc2c[nH]c3ccccc23)C(=O)N2CCC[C@H]2C(N)=O)NC(=O)[C@H](CC(=O)O)NC(=O)[C@H](CCCCNC(=O)CN2CCN(CC(=O)O)CCN(CC(=O)O)CCN(CC(=O)O)CC2)NC(=O)[C@H](Cc2ccc3ccccc3c2)NC(=O)[C@H](CC(N)=O)NC(=O)[C@H](CN2CCOCC2)NC1=O)C(C)(C)C)[C@@H](C)O (single isomer, unassigned) [compound 304, Ac-W-T-(Tbg)-C(3)-[3-(1-morpholinyl)-Ala]-N-(2Nal)-Lys(DOTA)-D-C(3)-W-P-CONH2] | 1 to 10
2 | CC(=O)N[C@@H](Cc1c[nH]c2ccccc12)C(=O)N[C@H](C(=O)N[C@@H](CC(C)(C)C)C(=O)N[C@H]1CSSC[C@@H](C(=O)N[C@@H](Cc2c[nH]c3ccccc23)C(=O)N2CCC[C@H]2C(N)=O)NC(=O)[C@H](CC(=O)O)NC(=O)[C@H](CCCCNC(=O)CN2CCN(CC(=O)O)CCN(CC(=O)O)CCN(CC(=O)O)CC2)NC(=O)[C@H](Cc2ccc3ccccc3c2)NC(=O)[C@H](CC(N)=O)NC(=O)C(CN2CCOCC2)NC1=O)[C@@H](C)O (single isomer, unassigned) [compound 305, Ac-W-T-(t-Bu-Ala)-C(3)-[3-(1-morpholinyl)-Ala]-N-(2Nal)-Lys(DOTA)-D-C(3)-W-P-CONH2] | < 1
3 | CCC(C)(C)[C@H](NC(=O)[C@@H](NC(=O)[C@H](Cc1c[nH]c2ccccc12)NC(C)=O)[C@@H](C)O)C(=O)N[C@H]1CSSC[C@@H](C(=O)N[C@@H](Cc2c[nH]c3ccccc23)C(=O)N2CCC[C@H]2C(N)=O)NC(=O)[C@H](CC(=O)O)NC(=O)[C@H](CCCCNC(=O)CN2CCN(CC(=O)O)CCN(CC(=O)O)CCN(CC(=O)O)CC2)NC(=O)[C@H](Cc2ccc3ccccc3c2)NC(=O)[C@H](CC(N)=O)NC(=O)C(CN2CCOCC2)NC1=O (single isomer, unassigned) [compound 306, Ac-W-T-(α-tert-amylGly)-C(3)-[3-(1-morpholinyl)-Ala]-N-(2Nal)-Lys(DOTA)-D-C(3)-W-P-CONH2] | < 1
4 | CC[C@@H](C)[C@H](NC(=O)[C@@H](NC(=O)[C@H](Cc1c[nH]c2ccccc12)NC(C)=O)[C@@H](C)O)C(=O)N[C@H]1CSSC[C@@H](C(=O)N[C@@H](Cc2c[nH]c3ccccc23)C(=O)N2CCC[C@H]2C(N)=O)NC(=O)[C@H](CC(=O)O)NC(=O)[C@H](CCCCNC(=O)CN2CCN(CC(=O)O)CCN(CC(=O)O)CCN(CC(=O)O)CC2)NC(=O)[C@H](Cc2ccc3ccccc3c2)NC(=O)[C@H](CC(N)=O)NC(=O)C(CN2CCOCC2)NC1=O (single isomer, unassigned) [compound 307, Ac-W-T-(Allo-Ile)-C(3)-[3-(1-morpholinyl)-Ala]-N-(2Nal)-Lys(DOTA)-D-C(3)-W-P-CONH2] | 1 to 10
5 | CC(=O)N[C@@H](Cc1c[nH]c2ccccc12)C(=O)N[C@H](C(=O)N[C@@H](CC(C)(C)C)C(=O)N[C@H]1CSSC[C@@H](C(=O)N[C@@H](Cc2c[nH]c3ccccc23)C(=O)N2CCC[C@H]2C(N)=O)NC(=O)[C@H](CC(=O)O)NC(=O)[C@H](CCCCNC(=O)CN2CCN(CC(=O)O)CCN(CC(=O)O)CCN(CC(=O)O)CC2)NC(=O)[C@H](Cc2ccc3ccccc3c2)NC(=O)[C@H](CC(N)=O)NC(=O)C(CN2CCOCC2)NC1=O)[C@@H](C)O (single isomer, unassigned) [compound 310, Ac-W-T-(t-Bu-Ala)-C(3)-[3-(1-morpholinyl)-Ala]-N-(2Nal)-Lys(DOTA)-D-C(3)-W-P-CONH2] | < 1
6 | CCC(C)(C)[C@H](NC(=O)[C@@H](NC(=O)[C@H](Cc1c[nH]c2ccccc12)NC(C)=O)[C@@H](C)O)C(=O)N[C@H]1CSSC[C@@H](C(=O)N[C@@H](Cc2c[nH]c3ccccc23)C(=O)N2CCC[C@H]2C(N)=O)NC(=O)[C@H](CC(=O)O)NC(=O)[C@H](CCCCNC(=O)CN2CCN(CC(=O)O)CCN(CC(=O)O)CCN(CC(=O)O)CC2)NC(=O)[C@H](Cc2ccc3ccccc3c2)NC(=O)[C@H](CC(N)=O)NC(=O)C(CN2CCOCC2)NC1=O (single isomer, unassigned) [compound 311, Ac-W-T-(α-tert-amylGly)-C(3)-[3-(1-morpholinyl)-Ala]-N-(2Nal)-Lys(DOTA)-D-C(3)-W-P-CONH2] | < 1
7 | CC[C@@H](C)[C@H](NC(=O)[C@@H](NC(=O)[C@H](Cc1c[nH]c2ccccc12)NC(C)=O)[C@@H](C)O)C(=O)N[C@H]1CSSC[C@@H](C(=O)N[C@@H](Cc2c[nH]c3ccccc23)C(=O)N2CCC[C@H]2C(N)=O)NC(=O)[C@H](CC(=O)O)NC(=O)[C@H](CCCCNC(=O)CN2CCN(CC(=O)O)CCN(CC(=O)O)CCN(CC(=O)O)CC2)NC(=O)[C@H](Cc2ccc3ccccc3c2)NC(=O)[C@H](CC(N)=O)NC(=O)C(CN2CCOCC2)NC1=O (single isomer, unassigned) [compound 312, Ac-W-T-(Allo-Ile)-C(3)-[3-(1-morpholinyl)-Ala]-N-(2Nal)-Lys(DOTA)-D-C(3)-W-P-CONH2] | < 1
8 | CC[C@H](C)[C@H](NC(=O)[C@@H](NC(=O)[C@H](Cc1c[nH]c2ccccc12)NC(=O)[C@H](CCSC)NC(C)=O)[C@@H](C)O)C(=O)N[C@H]1CSSC[C@@H](C(=O)N[C@@H](Cc2c[nH]c3ccccc23)C(=O)N2CCC[C@H]2C(N)=O)NC(=O)[C@H](CC(=O)O)NC(=O)[C@H](Cc2cnc[nH]2)NC(=O)[C@H](Cc2c[nH]c3ccccc23)NC(=O)[C@H](CC(N)=O)NC(=O)[C@H](CC(N)=O)NC1=O [compound 1] (Ac-MWTICNNWHDCWP-NH2; disulfide 5-11) | 1 to 10
9 | CC[C@H](C)[C@H](NC(=O)[C@@H](NC(=O)[C@H](Cc1c[nH]c2ccccc12)NC(=O)[C@@H](C)NC(C)=O)[C@@H](C)O)C(=O)N[C@H]1CSSC[C@@H](C(=O)N[C@@H](Cc2c[nH]c3ccccc23)C(=O)N2CCC[C@H]2C(N)=O)NC(=O)[C@H](CC(=O)O)NC(=O)[C@H](Cc2cnc[nH]2)NC(=O)[C@H](Cc2c[nH]c3ccccc23)NC(=O)[C@H](CC(N)=O)NC(=O)[C@H](CC(N)=O)NC1=O [compound 2, Ac-(D-Ala)-W-T-I-C(3)-N-N-W-H-D-C(3)-W-P-CONH2] (Ac-[dA]WTICNNWHDCWP-NH2; disulfide 5-11) | 1 to 10
10 | CC[C@H](C)[C@H](NC(=O)[C@@H](NC(=O)[C@H](Cc1c[nH]c2ccccc12)NC(=O)[C@H](CCSC)NC(C)=O)[C@@H](C)O)C(=O)N[C@H]1CSSC[C@@H](C(=O)N[C@@H](Cc2c[nH]c3ccccc23)C(=O)N2CCC[C@H]2C(N)=O)NC(=O)[C@H](CC(=O)O)NC(=O)[C@H](Cc2cnc[nH]2)NC(=O)[C@H](Cc2c[nH]c3ccccc23)NC(=O)[C@H](CC(N)=O)NC(=O)[C@@H](C)NC1=O [compound 7, Ac-M-W-T-I-C(3)-(D-Ala)-N-W-H-D-C(3)-W-P-CONH2] (Ac-MWTIC[dA]NWHDCWP-NH2; disulfide 5-11) | 10 to 100
11 | CC[C@H](C)[C@H](NC(=O)[C@@H](NC(=O)[C@H](Cc1c[nH]c2ccccc12)NC(=O)[C@H](CCSC)NC(C)=O)[C@@H](C)O)C(=O)N[C@H]1CSSC[C@@H](C(=O)N[C@H](C)C(=O)N2CCC[C@H]2C(N)=O)NC(=O)[C@H](CC(=O)O)NC(=O)[C@H](Cc2cnc[nH]2)NC(=O)[C@H](Cc2c[nH]c3ccccc23)NC(=O)[C@H](CC(N)=O)NC(=O)[C@H](CC(N)=O)NC1=O [compound 9, Ac-M-W-T-I-C(3)-N-N-W-H-D-C(3)-(D-Ala)-P-CONH2] (Ac-MWTICNNWHDC[dA]P-NH2; disulfide 5-11) | 100 to 300
